Measurements: patent US20080140138A1, “Inhibition of inflammatory cytokine production by stimulation of brain muscarinic receptors” (priority 2002, published 2008)

Assays:
[1] = test system: carrageenan-induced hindpaw edema; test: Carrageenan-induced hindpaw edema; format: in vivo, Lewis rats; details: CNI-1493 5 μg/rat i.c.v., 1 h before carrageenan; edema 3 h post carrageenan
Description: (§1) Method of determining CNI-1493 receptor binding. CNI-1493 was tested at a single concentration (10 μM) in a panel of receptor binding assays by NovaScreen Biosciences Corporation (Hanover, Md.). Values were expressed as the percent inhibition of specific binding, and represented the average of duplicate tubes. Method of stereotactic intracerebroventricular injections. A rat model of intracerebroventricular (i.c.v.) injections was established in order to be able to directly deliver pharmacological agents into the brain of rats. This was necessary in order to separate drug effects on peripheral inflammation that occurred through central versus peripheral mechanisms. Lewis rats were anaesthetized with urethane (1 g/kg, i.p.) and xylazine (15 mg/rat, i.m. (intramuscular)). Rats were then placed in a stereotactic head frame (Stoelting, Wood Dale, Ill., USA). The incisor bar was adjusted until the plane defined by the lambda and bregma was parallel to the base plate. For i.c.v. injections the needle of a Hamilton syringe (25 μl) was positioned stereotactically above the lateral ventricle (0.2 mm and 1.5 mm posterior to bregma, 3.2 mm below the dura.) Solutions of the drugs tested were prepared in sterile endotoxin-free water, at the specified concentrations, and a 10-μl injection/rat was administered over 2 min, 1 h prior to either carrageenan injection, or to LPS.
The tested drugs, in either the carrageenan and/or LPS experiments, were: saline control; fluoxetine hydrochloride, (also known as Prozak) (0.01 mg/100 g); muscarine (50 μg/rat, 5 μg/rat, 0.5 μg/rat, 0.05 μg/rat, 0.005 μg/rat); 4-(N-[3-chlorophenyl]carbamoyloxy)-2-butynyltrimethylammonium chloride (also known as McN-A-343) (5 μg/rat); Muscarinic Toxin-3, (also known as MT-3) from Dendroaspis angusticeps snake venom (0.37 μg/rat); nicotine (10 μg/rat); CNI-1493 (1 μg/kg, 50 μg/rat); atropine (1 μg/kg, 5 μg/rat); CNI-1493 plus atropine (1 μg/kg of each of the drugs; 50 μg/rat, 5 μg/rat respectively); naloxone hydrochloride (2 μg/rat), CNI-1493 plus naloxone (50 μg/rat+5 μg/rat respectively); and morphine (20 μg/rat).
Method of carrageenan-induced hindpaw edema. Paw edema was induced in anaesthetized rats by injection of 1% solution of 1-carrageenan (100 μl) into the plantar surface of the left hindpaw. The right hindpaw was injected with the same volume of saline alone (as control). The thickness of the carrageenan-treated and saline-treated hindpaw was measured using a caliper at 3 h post carrageenan, and the difference between paw thickness calculated as an index of inflammation (paw swelling). Method of LPS injections and TNF determination. LPS (15 mg/kg, i.v.) was injected in the tail vein 1 h after drug injection. Blood was obtained 2 h post LPS injection by paraorbital bleeding. Serum TNF concentrations were determined by an L929 bioactivity assay. Method of assessing TNF by the L929 bioactivity assay. L929 cells were suspended in Dulbecco's minimal Eagle's medium (DMEM; GibcoBRL) supplemented with fetal bovine serum (10%; Hyclone) and penicillin/streptomycin (0.5%; Sigma Chemical Co.), and plated at 2×10^4 cells per well in 96-well flat-bottomed microtiter plates. After 24 h, media were respirated and replaced with medium containing cycloheximide (10 μg/ml; Sigma Chemical Co.) and the samples to be assayed/TNF standards. Plates were incubated overnight, at which time cell viability as a function of TNF concentration was assessed by the MTT assay. Absorbance values were converted to units per milliliter by comparison with a standard curve for rat TNF.
In a third set of experiments, rats were injected by i.c.v. means with either saline (n=4), CNI-1493 (5 μg/rat, n=3), CNI-1493 plus atropine (5 μg/rat each), or atropine (5 μg/rat). Carrageenan was given to the animals 1 h later, and paw edema was determined 3 h post carrageenan. […]

[2] = test system: glutamate (NMDA agonist site); test: NovaScreen receptor binding panel; details: 10 μM; <50% = marginal or no activity
Description: as §1

NK1 neurokinin = NK1 neurokinin (Homo sapiens, UniProt P25103); test: NovaScreen receptor binding panel; details: 10 μM; <50% = marginal or no activity
NK1 neurokinin, sequence (P25103 whole entry): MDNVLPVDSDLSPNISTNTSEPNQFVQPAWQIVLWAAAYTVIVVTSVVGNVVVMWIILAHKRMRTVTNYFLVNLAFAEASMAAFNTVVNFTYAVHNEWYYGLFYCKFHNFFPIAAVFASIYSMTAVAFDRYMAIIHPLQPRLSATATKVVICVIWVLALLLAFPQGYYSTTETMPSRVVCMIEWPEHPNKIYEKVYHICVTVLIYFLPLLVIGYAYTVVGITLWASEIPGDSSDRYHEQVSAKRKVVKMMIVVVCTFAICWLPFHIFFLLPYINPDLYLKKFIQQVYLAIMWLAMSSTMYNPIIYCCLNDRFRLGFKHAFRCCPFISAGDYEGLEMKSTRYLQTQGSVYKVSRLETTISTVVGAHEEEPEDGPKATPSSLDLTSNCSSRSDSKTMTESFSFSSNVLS
Description: as §1

serotonin = test: NovaScreen receptor binding panel; details: 10 μM, average of duplicate tubes
Description: as §1

[3] = test system: vasoactive intestinal peptide; test: NovaScreen receptor binding panel; details: 10 μM, average of duplicate tubes
Description: as §1

site 1 sodium = test: NovaScreen receptor binding panel; details: 10 μM; <50% = marginal or no activity
Description: as §1

[4] = test system: voltage-sensitive potassium channel; test: NovaScreen receptor binding panel; details: 10 μM, average of duplicate tubes
Description: as §1

chloride channel = test: NovaScreen receptor binding panel; details: 10 μM; <50% = marginal or no activity
Description: as §1

leukotriene D4 and LTD4 = test: NovaScreen receptor binding panel; details: 10 μM; <50% = marginal or no activity
Description: as §1

vasopressin 1 = vasopressin 1 (Homo sapiens, UniProt P37288); test: NovaScreen receptor binding panel; details: 10 μM; <50% = marginal or no activity
vasopressin 1, sequence (P37288 whole entry): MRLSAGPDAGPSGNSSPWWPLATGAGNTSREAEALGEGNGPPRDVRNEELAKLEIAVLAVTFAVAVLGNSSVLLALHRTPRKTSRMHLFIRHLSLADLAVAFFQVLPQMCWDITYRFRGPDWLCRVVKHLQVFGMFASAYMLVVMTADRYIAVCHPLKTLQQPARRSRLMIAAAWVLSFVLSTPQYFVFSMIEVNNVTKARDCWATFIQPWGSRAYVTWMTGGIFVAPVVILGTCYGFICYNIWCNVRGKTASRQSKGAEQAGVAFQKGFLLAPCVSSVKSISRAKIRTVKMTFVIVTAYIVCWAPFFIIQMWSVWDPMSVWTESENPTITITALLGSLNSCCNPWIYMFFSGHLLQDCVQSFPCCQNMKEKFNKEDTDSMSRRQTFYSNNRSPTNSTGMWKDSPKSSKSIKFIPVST
Description: as §1

site 2 sodium = test: NovaScreen receptor binding panel; details: 10 μM; <50% = marginal or no activity
Description: as §1

epidermal growth factor = epidermal growth factor (Homo sapiens, UniProt P00533); test: NovaScreen receptor binding panel; details: 10 μM; <50% = marginal or no activity
epidermal growth factor, sequence (P00533 25-1210): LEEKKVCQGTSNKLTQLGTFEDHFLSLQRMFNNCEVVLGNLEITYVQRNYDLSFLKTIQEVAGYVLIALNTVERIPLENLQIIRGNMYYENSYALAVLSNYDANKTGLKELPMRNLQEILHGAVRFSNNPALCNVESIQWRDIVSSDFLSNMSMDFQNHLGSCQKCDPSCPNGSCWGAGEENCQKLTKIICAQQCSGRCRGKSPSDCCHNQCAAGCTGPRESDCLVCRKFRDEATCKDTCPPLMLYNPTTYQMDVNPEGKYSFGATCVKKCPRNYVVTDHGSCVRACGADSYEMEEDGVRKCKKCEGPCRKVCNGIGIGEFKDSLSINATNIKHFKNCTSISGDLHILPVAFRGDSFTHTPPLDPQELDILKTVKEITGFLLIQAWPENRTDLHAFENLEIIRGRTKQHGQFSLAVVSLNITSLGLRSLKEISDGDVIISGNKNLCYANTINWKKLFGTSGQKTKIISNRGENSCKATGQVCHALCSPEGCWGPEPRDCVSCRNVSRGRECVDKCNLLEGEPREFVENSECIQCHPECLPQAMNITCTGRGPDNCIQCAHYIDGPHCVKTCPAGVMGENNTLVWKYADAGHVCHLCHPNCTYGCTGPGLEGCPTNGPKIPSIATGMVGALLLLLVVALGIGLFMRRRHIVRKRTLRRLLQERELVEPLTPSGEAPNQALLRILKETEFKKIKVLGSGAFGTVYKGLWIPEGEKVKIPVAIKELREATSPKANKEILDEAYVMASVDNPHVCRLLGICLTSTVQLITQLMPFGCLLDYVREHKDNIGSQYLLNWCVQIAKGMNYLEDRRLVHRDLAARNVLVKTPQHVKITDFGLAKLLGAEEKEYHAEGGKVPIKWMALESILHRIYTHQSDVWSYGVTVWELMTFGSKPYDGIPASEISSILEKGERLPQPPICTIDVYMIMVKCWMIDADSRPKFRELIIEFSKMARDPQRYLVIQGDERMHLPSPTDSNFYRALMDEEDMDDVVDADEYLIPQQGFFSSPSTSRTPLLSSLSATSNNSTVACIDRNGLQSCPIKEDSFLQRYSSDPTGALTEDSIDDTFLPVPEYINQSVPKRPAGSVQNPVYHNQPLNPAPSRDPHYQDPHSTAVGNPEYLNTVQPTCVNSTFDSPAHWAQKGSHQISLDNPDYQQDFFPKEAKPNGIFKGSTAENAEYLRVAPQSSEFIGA
Description: as §1

[5] = molecular target: T1, Muscarinic, M3 (Human recombinant) (Homo sapiens, UniProt P20309); test: NovaScreen muscarinic receptor binding panel; details: 10 μM, average of duplicate tubes
T1 construct: NovaScreen Biosciences Corporation (contract laboratory that ran the assay)
T1 sequence (P20309 whole entry): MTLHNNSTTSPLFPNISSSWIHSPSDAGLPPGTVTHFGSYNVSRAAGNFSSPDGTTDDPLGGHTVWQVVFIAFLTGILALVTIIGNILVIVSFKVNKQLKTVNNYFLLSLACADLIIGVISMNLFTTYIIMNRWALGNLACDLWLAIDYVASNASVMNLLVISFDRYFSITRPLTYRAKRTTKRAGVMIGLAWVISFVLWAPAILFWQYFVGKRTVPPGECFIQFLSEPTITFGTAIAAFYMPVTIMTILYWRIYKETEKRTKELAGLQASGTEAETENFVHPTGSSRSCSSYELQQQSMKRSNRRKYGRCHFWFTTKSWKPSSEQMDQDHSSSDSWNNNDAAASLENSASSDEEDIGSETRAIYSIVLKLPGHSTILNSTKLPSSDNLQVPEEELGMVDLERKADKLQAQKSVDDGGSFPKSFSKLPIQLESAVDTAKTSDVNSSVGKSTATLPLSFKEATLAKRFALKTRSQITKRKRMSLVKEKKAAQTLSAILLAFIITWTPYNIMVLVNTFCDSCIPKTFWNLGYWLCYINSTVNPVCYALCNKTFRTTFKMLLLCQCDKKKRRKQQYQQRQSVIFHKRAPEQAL
Description: (§2) Method of determining muscarinic receptor subtype. CNI-1493 was tested at a single concentration (10 μM) in a panel of muscarinic receptor binding assays by NovaScreen Biosciences Corporation (Hanover, Md.). Values were expressed as the percent inhibition of specific binding, and represented the average of duplicate tubes.

[6] = molecular target: Muscarinic, M1 (Human recombinant) (Homo sapiens, UniProt P11229); test: NovaScreen muscarinic receptor binding panel; details: 10 μM, average of duplicate tubes
Muscarinic, M1 (Human recombinant), sequence (P11229 whole entry): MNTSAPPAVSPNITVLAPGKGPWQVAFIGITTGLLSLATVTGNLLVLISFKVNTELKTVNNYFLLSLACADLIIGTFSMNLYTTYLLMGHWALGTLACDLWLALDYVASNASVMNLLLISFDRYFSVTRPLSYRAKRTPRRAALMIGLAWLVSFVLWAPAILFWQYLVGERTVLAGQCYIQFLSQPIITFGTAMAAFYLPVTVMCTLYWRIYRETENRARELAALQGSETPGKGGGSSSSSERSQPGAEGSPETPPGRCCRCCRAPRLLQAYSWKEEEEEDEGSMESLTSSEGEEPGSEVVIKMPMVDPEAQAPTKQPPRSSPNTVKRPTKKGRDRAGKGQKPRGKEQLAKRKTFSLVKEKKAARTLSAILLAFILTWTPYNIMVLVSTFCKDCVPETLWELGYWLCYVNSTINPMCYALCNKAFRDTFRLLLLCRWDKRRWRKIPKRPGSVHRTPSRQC
Description: as §2

[7] = molecular target: T2, Muscarinic, M4 (Human recombinant) (Homo sapiens, UniProt P08173); test: NovaScreen muscarinic receptor binding panel; details: 10 μM, average of duplicate tubes
T2 construct: NovaScreen Biosciences Corporation (contract laboratory that ran the assay)
T2 sequence (P08173 whole entry): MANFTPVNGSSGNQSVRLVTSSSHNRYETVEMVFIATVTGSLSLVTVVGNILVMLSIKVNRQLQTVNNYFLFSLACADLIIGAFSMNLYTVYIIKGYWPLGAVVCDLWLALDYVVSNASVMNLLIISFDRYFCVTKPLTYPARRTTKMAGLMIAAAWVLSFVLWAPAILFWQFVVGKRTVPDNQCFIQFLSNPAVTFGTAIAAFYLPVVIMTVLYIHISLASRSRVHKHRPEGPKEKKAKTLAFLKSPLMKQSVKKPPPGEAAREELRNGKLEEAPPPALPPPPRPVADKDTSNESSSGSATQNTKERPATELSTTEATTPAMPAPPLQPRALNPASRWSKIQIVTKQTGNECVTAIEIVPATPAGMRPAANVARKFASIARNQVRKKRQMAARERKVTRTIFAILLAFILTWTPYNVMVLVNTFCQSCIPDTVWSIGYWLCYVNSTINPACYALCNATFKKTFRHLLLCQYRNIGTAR
Description: as §2

[8] = molecular target: Muscarinic, M2 (Human recombinant) (Homo sapiens, UniProt P08172); test: NovaScreen muscarinic receptor binding panel; details: 10 μM, average of duplicate tubes
Muscarinic, M2 (Human recombinant), sequence (P08172 whole entry): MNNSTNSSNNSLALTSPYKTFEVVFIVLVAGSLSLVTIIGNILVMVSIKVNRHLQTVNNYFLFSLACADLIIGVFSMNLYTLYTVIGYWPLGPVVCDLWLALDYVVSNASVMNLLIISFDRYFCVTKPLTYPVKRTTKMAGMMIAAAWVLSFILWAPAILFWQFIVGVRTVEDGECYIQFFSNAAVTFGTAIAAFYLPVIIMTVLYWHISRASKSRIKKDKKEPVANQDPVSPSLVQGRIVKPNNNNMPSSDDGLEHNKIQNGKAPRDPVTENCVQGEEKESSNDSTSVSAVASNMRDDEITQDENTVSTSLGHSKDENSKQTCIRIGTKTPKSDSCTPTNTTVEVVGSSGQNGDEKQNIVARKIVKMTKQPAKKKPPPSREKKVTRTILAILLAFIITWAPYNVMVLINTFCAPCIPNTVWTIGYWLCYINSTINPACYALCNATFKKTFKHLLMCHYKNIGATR
Description: as §2

Muscarinic, M2 = test: NovaScreen muscarinic receptor binding panel; details: 10 μM, average of duplicate tubes
Description: as §2

Muscarinic, M3 = test: NovaScreen muscarinic receptor binding panel; details: 10 μM, average of duplicate tubes
Description: as §2

[9] = molecular target: T3, Muscarinic, M5 (Human recombinant) (Homo sapiens, UniProt P08912); test: NovaScreen muscarinic receptor binding panel; details: 10 μM, average of duplicate tubes
T3 construct: NovaScreen Biosciences Corporation (contract laboratory that ran the assay)
T3 sequence (P08912 whole entry): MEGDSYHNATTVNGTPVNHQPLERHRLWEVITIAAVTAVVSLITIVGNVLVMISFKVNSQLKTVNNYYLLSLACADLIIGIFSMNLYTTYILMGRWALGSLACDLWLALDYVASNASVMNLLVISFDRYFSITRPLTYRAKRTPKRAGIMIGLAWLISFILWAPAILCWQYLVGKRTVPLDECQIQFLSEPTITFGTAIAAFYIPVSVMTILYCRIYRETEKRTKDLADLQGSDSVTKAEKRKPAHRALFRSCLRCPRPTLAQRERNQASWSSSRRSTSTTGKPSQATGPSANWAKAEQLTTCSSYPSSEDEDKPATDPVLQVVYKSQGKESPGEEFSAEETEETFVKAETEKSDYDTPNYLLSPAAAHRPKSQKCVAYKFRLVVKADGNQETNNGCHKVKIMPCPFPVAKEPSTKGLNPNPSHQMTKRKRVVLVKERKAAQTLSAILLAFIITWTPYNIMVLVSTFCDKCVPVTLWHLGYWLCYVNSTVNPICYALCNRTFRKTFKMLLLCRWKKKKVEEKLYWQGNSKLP
Description: as §2

Muscarinic, M1 = test: NovaScreen muscarinic receptor binding panel; details: 10 μM, average of duplicate tubes
Description: as §2

With `CC(=NNC(=N)N)c1cc(NC(=O)CCCCCCCCC(=O)Nc2cc(C(C)=NNC(=N)N)cc(C(C)=NNC(=N)N)c2)cc(C(C)=NNC(=N)N)c1.Cl.Cl.Cl.Cl` [CNI-1493, N,N′-bis(3,5-diacetylphenyl) decanediamide tetrakis (amidinohydrazone) tetrahydrochloride] the “inhibition of carrageenan-induced paw edema” value [1] was “significantly inhibits”, the “percent inhibition of receptor binding” value [2] was “less than 50%” and the “percent inhibition of receptor binding” value (NK1 neurokinin) was “less than 50%”. The “percent inhibition of specific binding” value (serotonin) was 75.6%, the “percent inhibition of specific binding” value [3] was 58.5% and the “percent inhibition of receptor binding” value (site 1 sodium) was “less than 50%”. The “percent inhibition of specific binding” value [4] was 73.0%, the “percent inhibition of receptor binding” value (chloride channel) was “less than 50%” and the “percent inhibition of receptor binding” value (leukotriene D4 and LTD4) was “less than 50%”. The “percent inhibition of receptor binding” value (vasopressin 1) was “less than 50%”, the “percent inhibition of receptor binding” value (site 2 sodium) was “less than 50%” and the “percent inhibition of receptor binding” value (epidermal growth factor) was “less than 50%”. The Percent inhibition [5] was 40%, the Percent inhibition [6] was 72% and the Percent inhibition [7] was 57%. For the same compound, the Percent inhibition [8] was 58%, the Percent inhibition (Muscarinic, M2) was 85% and the Percent inhibition (Muscarinic, M3) was 9%. It also gave a Percent inhibition [9] of 43% and a Percent inhibition (Muscarinic, M1) of 83%.
